We go through one molecule from patent US20250255891A1, “PHARMACEUTICAL COMPOSITION INJECTABLE INTO URINARY TRACT ORGAN CAVITY FOR PREVENTION OR TREATMENT OF UROTHELIAL CANCER” (NATIONAL UNIVERSITY CORPORATION KAGAWA UNIVERSITY, priority 2019, published 2025).

The test system of data set [1] is RT112. The experiment in a line: Cell survival assay (MTT assay), urothelial cancer cell line RT112. In kind it is cell-based, human. The procedure:
(§1) Three human urothelial cancer cell lines (RT112, 253J, and J82) were used to analyze the antitumor effect of rare sugars. Ten rare sugars of L-allulose, D-allulose, D-allose, L-fructose, D-mannose, L-sorbose, D-tagatose, D-galactose, D-sorbose, and L-tagatose were used, and D-glucose and D-fructose were used as monosaccharides other than the rare sugars. A minimum essential medium (MEM) containing D-glucose at 1,000 mg/l was used as the culture medium, and the antitumor effect of a rare sugar was evaluated in a prepared MEM containing a monosaccharide or a rare sugar at 10 mM, 25 mM, or 50 mM [in the drawings, indicated by (10), (25), or (50)]. An MEM containing no sugar was used for control. With the MEM, cell suspensions each at 5.0×10^4 cells/ml were prepared. Each suspension was distributed in a 96-well plate at 0.1 ml/well and then was incubated for 24 hours. The culture solution was then removed, next a culture solution containing a monosaccharide or a rare sugar at 10 mM, 25 mM, or 50 mM in the MEM was added at 0.1 ml/well, and the whole was incubated for 24 hours (#1 to #13). An MTT assay is a test method for determining survival and uses a color reaction of an insoluble formazan pigment (blue) formed by reduction of MTT as a tetrazolium salt. […] The coloration is measured with a microplate reader to determine the cell survival rate.
(In general: Tetrazolium dyes change colour on reduction, which living cells bring about.)

Data set [2] has as its system J82. As to the kind of experiment: Cell survival assay (MTT assay), urothelial cancer cell line J82. In kind it is cell-based, human. Here is the method:
as §1

A short description of data set [3]: Basic safety tests (mutagenicity, biodegradability, acute oral toxicity, primary skin irritation, primary eye irritation). The note with it: tests ordered to a designated laboratory. The source says:
The safety of D-allose required for use as a pharmaceutical component is probably sufficient because the rare sugar is a monosaccharide present even in a trace amount in nature. Mutagenicity test, biodegradability test, and three acute toxicity tests (acute oral toxicity test, primary skin irritation test, and primary eye irritation test) are established as the most basic safety tests.

For data set [4], the system named is 253J. The experiment in a line: Cell survival assay (MTT assay), urothelial cancer cell line 253J. In kind it is cell-based, human. Here is the method:
as §1

Setting [5] is: compared with 11 other monosaccharides/rare sugars at 10-50 mM.

Structures are written as SMILES.

Regarding `O=C[C@H](O)[C@H](O)[C@H](O)[C@H](O)CO` [D-allose], the “survival rate as compared with the control” value in data set [1] (10 mM, 25 mM and 50 mM in MEM, 24 hours, p<0.05, FIG. 1) is on record as “significantly reduced the survival rate”; in data set [2] (10 mM, 25 mM and 50 mM in MEM, 24 hours, p<0.05, FIG. 3), “significantly reduced the survival rate”; in data set [4] (10 mM, 25 mM and 50 mM in MEM, 24 hours, p<0.05, FIG. 2) it was “significantly reduced the survival rate”. Further, the “antitumor effect relative to the other analyzed sugars” value in data set [1] (setting [5]), in data set [2] (setting [5]) and in data set [4] (setting [5]) was “strongest antitumor effect among the analyzed sugars” each time. Also, the “result of basic safety tests” value in data set [3] was “sufficient safety”.
